US20230114728A1 (Venatorx Pharmaceuticals, Inc., priority 2019, published 2023)

Tests used:
E. coli K12 PBP2 = molecular target: T1, E. coli K12 PBP2 (Escherichia coli, UniProt P0AD65); experiment: Bocillin-FL fluorescence polarization competition binding assay, E. coli PBP2
T1 construct: made in house
Description: (§1) Example I: Experimental Method for Penicillin-Binding Protein Binding Assays with Bocillin-FL Via Fluorescence Polarization
To determine the ability of boronic acid-based test PBP inhibitors to bind Penicillin Binding Proteins (PBPs), Bocillin-FL (fluorescently-labeled penicillin V; ThermoFisher Scientific) was used in a fluorescence polarization (FP) competition binding assay to assess inhibitor binding to PBP2, PBP3 or PBP4 from Escherichia coli (K12), PBP3 from Pseudomonas aeruginosa (PA01), PBP1a, PBP2 and PBP3 from Acinetobacter baumannii (ATCC 19606), and PBP2 from Neiserria gonorrheae (FA19). PBPs were cloned and purified as described previously (E. coli PBPs, King, D. T, et al., ACS Infectious Diseases 2015, 1, 175-184; P. aeruginosa PBP3, Han et. al., PNAS 2010, 107 (51), 22002-22007; A. baumannii PBPs, Penwell et. al., Antimicrob. Agents Chemother. 2015, 59 (3), 1680-1689; N. gonorrhoeae PBP2, Singh et. al., J Biol. Chem. 2019, 294 (38), 14020-14032). To establish assay conditions for competition binding, enzyme titration/saturation binding experiments were initially performed. Bocillin-FL was prepared at 0.2 μM in a buffer comprised of 50 mM Hepes (pH 8.0), 300 mM NaCl and 5% (v/v) glycerol for reactions with E. coli, P. aeruginosa and N. gonorrhoeae PBPs, and 25 mM Tris (pH 8.0), 200 mM NaCl and 10% (v/v) glycerol and 0.005% (v/v) Tween 20 for reactions with A. baumannii PBPs. Saturation binding was performed by mixing 40 μl of PBP solutions ranging in concentrations from 0-24 μM with 40 μl of the 0.2 μM Bocillin-FL solution, in individual wells of a black 384-well microplate. FP was measured immediately upon mixing (Excitation, 490 nm; Emission, 520 nm; g-factor, 0.96), using a Cytation3 (BioTek) microplate reader and measured continuously for up to 120 minutes. […] Bocillin-FL was added and the FP immediately measured for up to 60 minutes (90 minutes for E. coli PBP2). […]

A. baumannii PBP2 = molecular target: T2, A. baumannii PBP2 (Acinetobacter baumannii, UniProt D0C8Z9); experiment: Bocillin-FL fluorescence polarization competition binding assay, A. baumannii PBP2
T2 construct: made in house
T2 sequence (D0C8Z9 1-672): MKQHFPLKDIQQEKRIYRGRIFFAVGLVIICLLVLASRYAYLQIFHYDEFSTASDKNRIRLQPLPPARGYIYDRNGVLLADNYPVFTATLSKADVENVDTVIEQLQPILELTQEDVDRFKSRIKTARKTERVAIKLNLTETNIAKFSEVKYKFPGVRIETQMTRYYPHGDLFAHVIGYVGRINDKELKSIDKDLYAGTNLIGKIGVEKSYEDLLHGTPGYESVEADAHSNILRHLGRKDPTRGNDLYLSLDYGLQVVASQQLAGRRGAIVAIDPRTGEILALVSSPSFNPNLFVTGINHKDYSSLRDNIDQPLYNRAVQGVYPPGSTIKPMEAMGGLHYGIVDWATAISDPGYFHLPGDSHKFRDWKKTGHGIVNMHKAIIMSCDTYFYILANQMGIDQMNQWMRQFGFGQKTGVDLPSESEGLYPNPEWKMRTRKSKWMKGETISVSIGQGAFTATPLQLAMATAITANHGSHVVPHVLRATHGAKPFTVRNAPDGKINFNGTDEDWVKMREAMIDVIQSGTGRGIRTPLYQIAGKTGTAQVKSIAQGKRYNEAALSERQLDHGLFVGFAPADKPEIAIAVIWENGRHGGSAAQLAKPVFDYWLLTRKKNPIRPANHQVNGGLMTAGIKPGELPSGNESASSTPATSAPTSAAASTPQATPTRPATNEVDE
Description: as §1
To determine the ability of boronic acid-based test PBP inhibitors to bind Penicillin Binding Proteins (PBPs), Bocillin-FL (fluorescently-labeled penicillin V; ThermoFisher Scientific) was used in a fluorescence polarization (FP) competition binding assay to assess inhibitor binding to PBP2, PBP3 or PBP4 from Escherichia coli (K12), PBP3 from Pseudomonas aeruginosa (PA01), PBP1a, PBP2 and PBP3 from Acinetobacter baumannii (ATCC 19606), and PBP2 from Neiserria gonorrheae (FA19). PBPs were cloned and purified as described previously (E. coli PBPs, King, D. T, et al., ACS Infectious Diseases 2015, 1, 175-184; P. aeruginosa PBP3, Han et. al., PNAS 2010, 107 (51), 22002-22007; A. baumannii PBPs, Penwell et. al., Antimicrob. Agents Chemother. 2015, 59 (3), 1680-1689; N. gonorrhoeae PBP2, Singh et. al., J Biol. Chem. 2019, 294 (38), 14020-14032). To establish assay conditions for competition binding, enzyme titration/saturation binding experiments were initially performed. Bocillin-FL was prepared at 0.2 μM in a buffer comprised of 50 mM Hepes (pH 8.0), 300 mM NaCl and 5% (v/v) glycerol for reactions with E. coli, P. aeruginosa and N. gonorrhoeae PBPs, and 25 mM Tris (pH 8.0), 200 mM NaCl and 10% (v/v) glycerol and 0.005% (v/v) Tween 20 for reactions with A. baumannii PBPs. Saturation binding was performed by mixing 40 μl of PBP solutions ranging in concentrations from 0-24 μM with 40 μl of the 0.2 μM Bocillin-FL solution, in individual wells of a black 384-well microplate. FP was measured immediately upon mixing (Excitation, 490 nm; Emission, 520 nm; g-factor, 0.96), using a Cytation3 (BioTek) microplate reader and measured continuously for up to 120 minutes. […] The competition binding assay (80 μl final volume) was validated using beta-lactams and PBPs at final concentrations of: 1.5 μM, E. coli PBP3; 0.75 μM, P. aeruginosa PBP3; 1 μM A. baumannii PBP1a; 2.5 μM A. baumannii PBP2; 0.2 μM A. baumannii PBP3; and […] N. gonorrhoeae PBP2. Bocillin-FL was at 0.1 μM (0.05 μM with A. baumannii PBP1a) and beta-lactam concentrations ranged from 0-1000 μM. […] Bocillin-FL was added and the FP immediately measured for up to 60 minutes (90 minutes for E. coli PBP2). […] The beta-lactam potency was reported as the concentration of beta-lactam required to reduce the amount of PBP bound-Bocillin-FL by 50% (EC50). […] Binding assays for boronic acid PBP inhibitors were performed in an identical fashion for the respective PBPs

T1 sequence (P0AD65 whole entry): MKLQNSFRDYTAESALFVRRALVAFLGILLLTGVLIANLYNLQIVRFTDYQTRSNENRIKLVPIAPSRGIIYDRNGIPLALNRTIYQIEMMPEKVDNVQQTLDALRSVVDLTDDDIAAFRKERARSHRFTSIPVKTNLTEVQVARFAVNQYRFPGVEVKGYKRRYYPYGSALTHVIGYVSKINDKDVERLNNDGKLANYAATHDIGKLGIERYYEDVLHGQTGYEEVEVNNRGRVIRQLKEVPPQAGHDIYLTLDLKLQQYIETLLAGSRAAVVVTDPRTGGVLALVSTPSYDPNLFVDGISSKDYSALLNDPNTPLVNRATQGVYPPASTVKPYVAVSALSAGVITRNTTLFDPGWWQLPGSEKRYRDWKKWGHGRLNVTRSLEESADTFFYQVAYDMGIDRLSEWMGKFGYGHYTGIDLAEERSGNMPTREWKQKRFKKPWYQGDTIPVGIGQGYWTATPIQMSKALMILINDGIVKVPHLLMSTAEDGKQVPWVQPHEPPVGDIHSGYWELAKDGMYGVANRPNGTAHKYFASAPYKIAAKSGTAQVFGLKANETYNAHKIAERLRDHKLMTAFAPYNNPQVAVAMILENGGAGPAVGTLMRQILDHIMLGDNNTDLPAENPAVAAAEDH

**Q.** With CC1(C)S[C@@H]2[C@H](/N=C/N3CCCCCC3)C(=O)N2[C@H]1C(=O)O [mecillinam, reference compound] as the compound, how does the EC50 (E. coli K12 PBP2) read?
**A.** Its EC50 is 2.1 µM.

**Q.** What about the EC50 (A. baumannii PBP2) of the same compound?
**A.** The EC50 was 0.4 µM.
